Activity calls are given as the source filed them. No cut-off for these calls is given here.
Tests used:
A-375 [1] = assay: Antiproliferative activity against CM-Dil labelled human A-375 cells xenografted in Zebra fish AB assessed as suppression of tumor growth by measuring red fluorescence preincubated with compound followed by 365 nm light irradiation for 5 mins and measured after 48 hrs by fluorescence based analysis; assay type: functional, cell-based; conditions: dose 45-90 pM
[2] = Metabolic stability in human liver microsomes assessed as parent compound remaining measured after 1 hrs in the presence of NADPH regenerating system; assay type: ADME, Microsome; conditions: read-out: Stability
[3] = test system: Serine/threonine-protein kinase B-raf (Homo sapiens), P15056 [V600E]; assay: Inhibition of recombinant human BRAF V600E mutant at 1 uM
A-375 [4] = assay: Antiproliferative activity against CM-Dil labelled human A-375 cells xenografted in Zebra fish AB at 45 pM administered from 3 days post fertilization and measured at day 5 post fertilization in the absence of irradiation by fluorescence based analysis; assay type: functional, cell-based; conditions: time 48.0 hrs
HCT-116 [5] = assay: Antiproliferative activity against human HCT-116 cells harboring KRAS G13D mutant assessed as cell growth inhibition preincubated with compound for 1 hrs followed by UV irradiation for 5 mins and measured 72 hrs post compound treatment by CellTiter-Glo luminescent assay; assay type: functional; conditions: HCT-116, light or radiation study
[6] = Metabolic stability in human liver microsomes assessed as parent compound remaining measured after 1 hrs in the absence of NADPH regenerating system; assay type: ADME, Microsome; conditions: read-out: Stability
[7] = molecular target: Mitogen-activated protein kinase 3 (Homo sapiens) (UniProt P27361); assay: Inhibition of recombinant human ERK1 at 1 uM
[8] = molecular target: Fibroblast growth factor receptor 1 (Homo sapiens) (UniProt P11362); assay: Inhibition of recombinant human FGFR1 at 1 uM
A-375 [9] = assay: Antiproliferative activity against human A-375 cells harboring BRAF V600E mutant assessed as cell growth inhibition incubated for 72 hrs in the absence of UV irradiation by CellTiter-Glo luminescent assay; assay type: functional; conditions: A-375, light or radiation study
[10] = Photoactivation of the compound assessed as photocleavage by measuring decay half-life in the presence of 365 nm UV irradiation by HPLC based LC-MS analysis
A549 [11] = assay: Antiproliferative activity against human A549 cells harboring KRAS […] mutant assessed as cell growth inhibition incubated for 72 hrs in the absence of UV irradiation by CellTiter-Glo luminescent assay; assay type: functional; conditions: A549, light or radiation study
CYP1A2 = molecular target: T1, CYP1A2 (Homo sapiens, UniProt P05177); assay: Inhibition of CYP1A2 in human microsomes at 10 uM in the presence of NADPH relative to control; assay type: ADME, Microsome
T1 sequence (P05177 whole entry): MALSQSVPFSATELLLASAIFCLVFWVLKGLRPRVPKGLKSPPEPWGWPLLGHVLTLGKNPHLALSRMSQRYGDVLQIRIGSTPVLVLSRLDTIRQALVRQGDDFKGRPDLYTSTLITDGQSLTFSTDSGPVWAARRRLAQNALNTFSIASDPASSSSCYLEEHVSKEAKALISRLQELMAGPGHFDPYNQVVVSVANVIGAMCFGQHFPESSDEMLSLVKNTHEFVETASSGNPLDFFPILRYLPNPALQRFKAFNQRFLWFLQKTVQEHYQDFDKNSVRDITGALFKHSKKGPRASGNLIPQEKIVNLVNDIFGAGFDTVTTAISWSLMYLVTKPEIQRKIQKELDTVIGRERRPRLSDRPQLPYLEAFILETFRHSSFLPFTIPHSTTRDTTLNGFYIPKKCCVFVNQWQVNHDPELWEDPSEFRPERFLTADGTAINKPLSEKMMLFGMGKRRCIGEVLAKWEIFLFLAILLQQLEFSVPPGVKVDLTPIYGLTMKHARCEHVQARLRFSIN

HCT-116 [12] = assay: Antiproliferative activity against human HCT-116 cells harboring KRAS G13D mutant assessed as cell growth inhibition incubated for 72 hrs in the absence of UV irradiation by CellTiter-Glo luminescent assay; assay type: functional; conditions: HCT-116, light or radiation study
A-375 [13] = assay: Inhibition of MEK/ERK/RSK signaling in human A-375 cells assessed as inhibition of RSK phosphorylation at 5 nM in the presence of 365 nm light irradiation for 30 sec to 5 min by Western blot analysis; assay type: cell-based
A549 [14] = assay: Antiproliferative activity against human A549 cells harboring KRas […] mutant assessed as cell growth inhibition preincubated with compound for 1 hrs followed by UV irradiation for 5 mins and measured 72 hrs post compound treatment by CellTiter-Glo luminescent assay; assay type: functional; conditions: A549, light or radiation study
[15] = molecular target: T2, Mitogen-activated protein kinase; ERK1/ERK2 (Homo sapiens, UniProt P27361+P28482); assay: Inhibition of ERK1/2 phosphorylation in human A-375 cells preincubated with compound for 1 hrs followed by 365 nm light irradiation for 5 mins and measured after 1 hrs compound treatment by Western blot analysis; assay type: cell-based; conditions: dose 1-100 nM, time 125.0 min
[16] = molecular target: Epidermal growth factor receptor (Homo sapiens) (UniProt P00533); assay: Inhibition of recombinant human EGFR at 1 uM
A-375 [17] = assay: Inhibition of MEK/ERK/RSK signaling in human A-375 cells at 5 nM in the absence of light irradiation by Western blot analysis; assay type: cell-based
[18] = molecular target: Dual specificity mitogen-activated protein kinase kinase 2 (Homo sapiens) (UniProt P36507); assay: Inhibition of recombinant human MEK2 at 1 uM
CYP2C19 = CYP2C19 (Homo sapiens, UniProt P33261); assay: Inhibition of CYP2C19 in human microsomes at 10 uM in the presence of NADPH relative to control; assay type: ADME, Microsome
[19] = Selectivity ratio of GI50 for antiproliferative activity against human A-375 cells harboring BRAF V600E mutant in the absence of UV irradiation to GI50 for antiproliferative activity against human A-375 cells harboring BRAF V600E mutant in the presence of UV irradiation for 5 mins; assay type: functional
[20] = Stability in human blood plasma assessed as half-life; assay type: ADME, cell-free
[21] = Metabolic stability in human liver microsomes assessed as intrinsic clearance in the presence of NADPH regenerating system; assay type: ADME, Microsome; conditions: read-out: CLH
[22] = Photoactivation of the compound assessed as fold change in caging efficiency
[23] = Cytotoxicity against HEK293T cells assessed as cell growth inhibition incubated for 72 hrs by CellTiter-Glo luminescent assay; assay type: toxicity, cell-based, HEK-293T; conditions: human
CYP2D6 = CYP2D6 (Homo sapiens, UniProt P10635); assay: Inhibition of CYP2D6 in human microsomes at 10 uM in the presence of NADPH relative to control; assay type: ADME, Microsome
A-375 [24] = assay: Antiproliferative activity against human A-375 cells harboring BRAF V600E mutant assessed as cell growth inhibition preincubated with compound for 1 hrs followed by UV irradiation for 5 mins and measured 72 hrs post compound treatment by CellTiter-Glo luminescent assay; assay type: functional; conditions: A-375, light or radiation study
[25] = Metabolic stability in human liver microsomes assessed as half-life in the presence of NADPH regenerating system; assay type: ADME, Microsome
[26] = Photoactivation of the compound assessed as photocleavage in the presence of 365 nm UV irradiation by HPLC based LC-MS analysis
[27] = molecular target: T2, Mitogen-activated protein kinase; ERK1/ERK2; assay: Inhibition of ERK1/2 phosphorylation in human A-375 cells upto 10 uM incubated for 1 hrs in the absence of UV irradiation by Western blot analysis; assay type: cell-based

T2 sequence (P27361 whole entry, looked up): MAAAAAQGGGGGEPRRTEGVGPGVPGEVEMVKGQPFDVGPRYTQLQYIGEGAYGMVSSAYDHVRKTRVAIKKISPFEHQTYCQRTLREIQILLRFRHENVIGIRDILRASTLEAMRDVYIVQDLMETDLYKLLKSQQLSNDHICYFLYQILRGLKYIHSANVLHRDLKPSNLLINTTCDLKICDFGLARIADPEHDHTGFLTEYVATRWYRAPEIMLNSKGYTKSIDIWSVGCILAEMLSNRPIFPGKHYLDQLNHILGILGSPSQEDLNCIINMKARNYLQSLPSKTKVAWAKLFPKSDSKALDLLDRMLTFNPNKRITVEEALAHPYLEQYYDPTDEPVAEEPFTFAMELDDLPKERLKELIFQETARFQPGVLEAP
T2 sequence (P28482 whole entry, looked up): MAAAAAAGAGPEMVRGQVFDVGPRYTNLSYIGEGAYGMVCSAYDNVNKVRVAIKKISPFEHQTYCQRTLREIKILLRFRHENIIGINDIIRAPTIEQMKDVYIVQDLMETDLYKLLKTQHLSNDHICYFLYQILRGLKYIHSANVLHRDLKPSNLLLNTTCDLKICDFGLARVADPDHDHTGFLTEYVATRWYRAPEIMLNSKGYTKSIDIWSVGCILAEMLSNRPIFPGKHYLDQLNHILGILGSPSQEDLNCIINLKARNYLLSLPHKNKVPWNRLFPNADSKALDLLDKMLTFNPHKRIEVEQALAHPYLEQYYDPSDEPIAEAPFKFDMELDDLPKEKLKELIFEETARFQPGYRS
CYP2D6, sequence (P10635 whole entry): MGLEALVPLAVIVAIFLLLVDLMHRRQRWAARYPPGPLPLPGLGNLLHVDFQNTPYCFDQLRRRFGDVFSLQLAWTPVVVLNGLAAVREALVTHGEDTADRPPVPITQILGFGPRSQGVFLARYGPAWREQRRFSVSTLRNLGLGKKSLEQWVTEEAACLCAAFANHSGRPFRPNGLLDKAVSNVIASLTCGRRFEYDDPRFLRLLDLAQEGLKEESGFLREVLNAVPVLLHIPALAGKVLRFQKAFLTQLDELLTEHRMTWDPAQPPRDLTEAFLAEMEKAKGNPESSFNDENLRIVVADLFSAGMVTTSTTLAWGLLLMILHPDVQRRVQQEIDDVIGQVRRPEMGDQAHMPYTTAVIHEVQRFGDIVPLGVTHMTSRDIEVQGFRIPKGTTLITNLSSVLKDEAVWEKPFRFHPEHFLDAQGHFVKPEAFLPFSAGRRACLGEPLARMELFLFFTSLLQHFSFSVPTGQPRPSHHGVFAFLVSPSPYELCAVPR
Dual specificity mitogen-activated protein kinase kinase 2 (Homo sapiens), sequence (P36507 whole entry): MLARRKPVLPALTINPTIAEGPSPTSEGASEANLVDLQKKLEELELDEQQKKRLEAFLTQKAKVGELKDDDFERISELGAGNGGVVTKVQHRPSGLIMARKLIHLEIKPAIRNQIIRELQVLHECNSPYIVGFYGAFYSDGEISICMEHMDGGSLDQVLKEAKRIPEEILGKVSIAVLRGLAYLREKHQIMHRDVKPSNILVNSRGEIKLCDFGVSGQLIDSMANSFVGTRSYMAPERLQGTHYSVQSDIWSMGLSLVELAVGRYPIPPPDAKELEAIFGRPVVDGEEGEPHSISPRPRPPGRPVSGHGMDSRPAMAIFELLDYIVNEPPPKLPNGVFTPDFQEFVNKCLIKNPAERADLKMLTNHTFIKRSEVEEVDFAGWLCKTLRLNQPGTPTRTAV
CYP2C19, sequence (P33261 whole entry): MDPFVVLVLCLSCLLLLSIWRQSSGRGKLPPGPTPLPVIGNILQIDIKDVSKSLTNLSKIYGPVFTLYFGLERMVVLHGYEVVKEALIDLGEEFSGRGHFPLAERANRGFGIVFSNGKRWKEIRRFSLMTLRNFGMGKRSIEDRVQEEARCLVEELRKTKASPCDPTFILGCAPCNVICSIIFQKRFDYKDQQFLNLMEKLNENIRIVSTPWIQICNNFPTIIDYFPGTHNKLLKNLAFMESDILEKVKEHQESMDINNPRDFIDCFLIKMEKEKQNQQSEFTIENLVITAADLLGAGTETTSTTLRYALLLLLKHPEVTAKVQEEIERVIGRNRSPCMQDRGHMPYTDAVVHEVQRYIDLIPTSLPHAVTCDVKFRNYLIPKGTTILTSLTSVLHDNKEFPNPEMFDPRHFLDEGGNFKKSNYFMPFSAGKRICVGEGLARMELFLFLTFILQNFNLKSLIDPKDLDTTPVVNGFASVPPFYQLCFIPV
Mitogen-activated protein kinase 3 (Homo sapiens), sequence (P27361 whole entry): as the sequence (P27361 whole entry, looked up) above
Fibroblast growth factor receptor 1 (Homo sapiens), sequence (P11362 22-822 limits assumed): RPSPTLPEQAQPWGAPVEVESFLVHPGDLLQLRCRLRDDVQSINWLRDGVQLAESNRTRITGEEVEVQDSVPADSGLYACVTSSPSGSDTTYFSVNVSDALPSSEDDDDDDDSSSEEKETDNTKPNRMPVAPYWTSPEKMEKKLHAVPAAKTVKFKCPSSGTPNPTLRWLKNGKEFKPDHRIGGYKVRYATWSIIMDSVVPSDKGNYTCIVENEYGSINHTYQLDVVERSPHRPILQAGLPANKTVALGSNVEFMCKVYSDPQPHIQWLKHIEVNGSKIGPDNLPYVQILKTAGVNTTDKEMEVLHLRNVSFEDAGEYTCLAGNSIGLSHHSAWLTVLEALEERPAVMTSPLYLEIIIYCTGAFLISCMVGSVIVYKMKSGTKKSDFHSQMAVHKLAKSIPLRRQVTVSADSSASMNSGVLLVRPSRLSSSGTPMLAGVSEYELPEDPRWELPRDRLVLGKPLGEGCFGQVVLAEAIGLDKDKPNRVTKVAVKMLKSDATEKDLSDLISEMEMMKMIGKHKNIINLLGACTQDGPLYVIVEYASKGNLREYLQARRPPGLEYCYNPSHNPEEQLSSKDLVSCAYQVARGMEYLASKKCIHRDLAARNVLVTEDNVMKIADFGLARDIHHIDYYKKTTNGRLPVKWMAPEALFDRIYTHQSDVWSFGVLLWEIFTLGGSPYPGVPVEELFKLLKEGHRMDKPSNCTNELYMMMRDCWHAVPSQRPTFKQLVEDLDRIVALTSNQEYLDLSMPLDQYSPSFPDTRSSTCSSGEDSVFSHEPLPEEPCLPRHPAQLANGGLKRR
Serine/threonine-protein kinase B-raf (Homo sapiens), P15056 [V600E], sequence (P15056 whole entry V600E): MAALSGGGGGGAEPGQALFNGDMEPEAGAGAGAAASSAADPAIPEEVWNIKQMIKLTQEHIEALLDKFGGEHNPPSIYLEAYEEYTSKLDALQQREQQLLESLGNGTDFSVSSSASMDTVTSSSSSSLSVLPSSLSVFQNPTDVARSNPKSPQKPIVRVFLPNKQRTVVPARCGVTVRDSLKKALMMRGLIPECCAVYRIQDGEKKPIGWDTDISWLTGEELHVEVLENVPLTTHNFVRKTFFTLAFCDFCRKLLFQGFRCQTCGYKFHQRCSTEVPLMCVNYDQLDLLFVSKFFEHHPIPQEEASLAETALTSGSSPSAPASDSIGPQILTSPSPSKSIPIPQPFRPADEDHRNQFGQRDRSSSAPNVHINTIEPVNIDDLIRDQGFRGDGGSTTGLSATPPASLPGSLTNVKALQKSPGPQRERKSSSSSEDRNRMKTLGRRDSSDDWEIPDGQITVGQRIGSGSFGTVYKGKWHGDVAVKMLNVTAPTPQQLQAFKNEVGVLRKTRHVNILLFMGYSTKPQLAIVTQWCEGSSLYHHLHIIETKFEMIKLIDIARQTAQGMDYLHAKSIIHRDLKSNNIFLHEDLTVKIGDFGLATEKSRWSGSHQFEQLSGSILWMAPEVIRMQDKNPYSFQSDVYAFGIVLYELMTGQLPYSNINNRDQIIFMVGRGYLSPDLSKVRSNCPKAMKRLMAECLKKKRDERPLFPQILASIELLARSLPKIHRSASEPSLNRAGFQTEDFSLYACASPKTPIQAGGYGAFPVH
Epidermal growth factor receptor (Homo sapiens), sequence (P00533 whole entry): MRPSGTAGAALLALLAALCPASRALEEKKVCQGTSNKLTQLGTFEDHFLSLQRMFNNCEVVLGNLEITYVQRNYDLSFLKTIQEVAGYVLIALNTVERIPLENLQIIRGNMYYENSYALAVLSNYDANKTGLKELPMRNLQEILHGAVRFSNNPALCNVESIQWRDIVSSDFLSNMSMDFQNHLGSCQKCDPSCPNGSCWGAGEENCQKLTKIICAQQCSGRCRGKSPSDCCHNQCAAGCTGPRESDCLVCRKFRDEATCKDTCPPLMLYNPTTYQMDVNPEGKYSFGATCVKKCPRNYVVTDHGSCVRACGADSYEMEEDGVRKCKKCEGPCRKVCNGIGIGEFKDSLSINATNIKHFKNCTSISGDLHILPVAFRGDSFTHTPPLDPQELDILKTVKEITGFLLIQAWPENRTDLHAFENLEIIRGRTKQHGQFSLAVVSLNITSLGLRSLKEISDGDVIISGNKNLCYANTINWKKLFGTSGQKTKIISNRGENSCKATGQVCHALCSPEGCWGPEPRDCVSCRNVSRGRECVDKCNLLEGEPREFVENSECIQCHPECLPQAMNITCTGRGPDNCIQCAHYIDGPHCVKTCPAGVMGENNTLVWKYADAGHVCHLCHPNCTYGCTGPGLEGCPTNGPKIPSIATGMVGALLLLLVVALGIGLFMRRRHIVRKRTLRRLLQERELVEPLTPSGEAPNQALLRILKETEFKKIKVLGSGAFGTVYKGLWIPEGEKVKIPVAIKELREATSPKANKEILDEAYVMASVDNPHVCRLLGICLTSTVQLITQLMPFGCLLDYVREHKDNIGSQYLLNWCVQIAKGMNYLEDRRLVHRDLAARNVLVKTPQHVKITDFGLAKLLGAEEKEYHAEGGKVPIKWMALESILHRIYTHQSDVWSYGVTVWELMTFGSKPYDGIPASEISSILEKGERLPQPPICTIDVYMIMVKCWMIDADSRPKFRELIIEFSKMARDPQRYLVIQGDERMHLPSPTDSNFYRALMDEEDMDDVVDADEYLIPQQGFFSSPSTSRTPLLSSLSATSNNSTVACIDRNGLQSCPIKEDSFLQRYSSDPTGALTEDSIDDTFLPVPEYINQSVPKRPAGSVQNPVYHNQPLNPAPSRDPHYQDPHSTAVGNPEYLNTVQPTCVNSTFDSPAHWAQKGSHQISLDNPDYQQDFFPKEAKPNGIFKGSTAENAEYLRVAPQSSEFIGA

remaining at 1 h [2]: 13.6% | inhibition [3]: inactive | GI50 (HCT-116 [5]): 60 nM | remaining at 1 h [6]: 84.5% | inhibition [7]: inactive | inhibition [8]: inactive | GI50 (A-375 [9]): 12700 nM | half-life [10]: 1.41 min | GI50 (A549 [11]): > 10000 nM | inhibition at 10 µM (CYP1A2): 0% | GI50 (HCT-116 [12]): > 10000 nM | GI50 (A549 [14]): 27.8 nM | inhibition [15]: Dose-Dependent Effect | inhibition [16]: inactive | inhibition [18]: inactive | inhibition at 10 µM (CYP2C19): 44.6% | half-life [20]: > 289 min | CLint scaled [21]: 51.4 mL/min/kg | fold change (FC) [22]: > 5085 | inhibition at 10 µM (CYP2D6): 21.5% | GI50 (A-375 [24]): 2.13 nM | half-life [25]: 24.2 min | Drug metabolism [26]: Metabolite_Detected | inhibition [27]: inactive
SMILES: COc1cc(C(C)O/C(=N\OC[C@H](O)CO)c2ccc(F)c(F)c2Nc2ccc(I)cc2F)c([N+](=O)[O-])cc1OC (stereo not given in full)
Activity (A-375 [1]): Dose-Dependent Effect | Activity (A-375 [4]): inactive | inhibition (A-375 [13]): Active | inhibition (A-375 [17]): inactive | RatioGI50 [19]: >5000 | GI50 at 72 h [23]: > 10000 nM
